Source: ChEMBL document CHEMBL3864146, “5-Alkyloxytryptamines are membrane-targeting, broad-spectrum antibiotics” (Bioorg Med Chem Lett, 2016)

Columns and labels:
[1] = system: Escherichia coli; assay: Antibacterial activity against Escherichia coli BW25113 after 16 to 18 hrs by micro-dilution method; format: functional
[2] = system: Escherichia coli; assay: Antibacterial activity against tolC-deficient Escherichia coli BW25113 after 16 to 18 hrs by micro-dilution method; format: functional
[3] = system: Bacillus subtilis; assay: Antibacterial activity against Bacillus subtilis 168 after 16 to 18 hrs by micro-dilution method; format: functional; settings: subsp. subtilis str. 168
[4] = system: Pseudomonas aeruginosa; assay: Antibacterial activity against Pseudomonas aeruginosa after 16 to 18 hrs by micro-dilution method; format: functional
[5] = system: Salmonella typhimurium; assay: Antibacterial activity against Salmonella typhimurium after 16 to 18 hrs by micro-dilution method; format: functional, Salmonella enterica subsp. enterica serovar Typhimurium; settings: Salmonella enterica
[6] = system: Vibrio cholerae; assay: Antibacterial activity against Vibrio cholerae after 16 to 18 hrs by micro-dilution method; format: functional
[7] = system: Shigella boydii; assay: Antibacterial activity against Shigella boydii after 16 to 18 hrs by micro-dilution method; format: functional
[8] = system: Klebsiella pneumoniae; assay: Antibacterial activity against Klebsiella pneumoniae after 16 to 18 hrs by micro-dilution method; format: functional
[9] = system: Klebsiella aerogenes; assay: Antibacterial activity against Enterobacter aerogenes after 16 to 18 hrs by micro-dilution method; format: functional
[10] = system: Acinetobacter baumannii; assay: Antibacterial activity against Acinetobacter baumannii after 16 to 18 hrs by micro-dilution method; format: functional
[11] = system: Edwardsiella tarda; assay: Antibacterial activity against Edwardsiella tarda after 16 to 18 hrs by micro-dilution method; format: functional
[12] = system: Morganella morganii; assay: Antibacterial activity against Morganella morganii after 16 to 18 hrs by micro-dilution method; format: functional
[13] = system: Staphylococcus aureus; assay: Antibacterial activity against Staphylococcus aureus after 16 to 18 hrs by micro-dilution method; format: functional
[14] = system: Escherichia coli; assay: Induction of membrane permeabilization in Escherichia coli BW25113 at MIC after 15 mins by propidium iodide staining-based fluorescence microplate reader method relative to 50% ethanol; format: functional
[15] = system: Escherichia coli; assay: Adjuvant activity assessed as potentiation of chloramphenicol-induced antibacterial activity against Escherichia coli BW25113 at 0.5 times MIC after 16 to 18 hrs by checkerboard assay (reference value: 8 ng/ml); format: functional
[16] = system: Escherichia coli; assay: Adjuvant activity assessed as potentiation of chloramphenicol-induced antibacterial activity against Escherichia coli BW25113 at 0.25 times MIC after 16 to 18 hrs by checkerboard assay (reference value: 8 ng/ml); format: functional
[17] = system: Escherichia coli; assay: Adjuvant activity assessed as potentiation of tetracycline-induced antibacterial activity against Escherichia coli BW25113 at 0.5 times MIC after 16 to 18 hrs by checkerboard assay (reference value: 2 ng/ml); format: functional
[18] = system: Escherichia coli; assay: Adjuvant activity assessed as potentiation of tetracycline-induced antibacterial activity against Escherichia coli BW25113 at 0.25 times MIC after 16 to 18 hrs by checkerboard assay (reference value: 2 ng/ml); format: functional
[19] = system: Escherichia coli; assay: Adjuvant activity assessed as potentiation of ciprofloxacin-induced antibacterial activity against Escherichia coli BW25113 at 0.5 times MIC after 16 to 18 hrs by checkerboard assay (reference value: 13 ng/ml); format: functional
[20] = system: Escherichia coli; assay: Adjuvant activity assessed as potentiation of ciprofloxacin-induced antibacterial activity against Escherichia coli BW25113 at 0.25 times MIC after 16 to 18 hrs by checkerboard assay (reference value: 13 ng/ml); format: functional
[21] = system: Escherichia coli; assay: Adjuvant activity assessed as potentiation of rifampicin-induced antibacterial activity against Escherichia coli BW25113 at 0.5 times MIC after 16 to 18 hrs by checkerboard assay (reference value: 8 ng/ml); format: functional
[22] = system: Escherichia coli; assay: Adjuvant activity assessed as potentiation of rifampicin-induced antibacterial activity against Escherichia coli BW25113 at 0.25 times MIC after 16 to 18 hrs by checkerboard assay (reference value: 8 ng/ml); format: functional
[23] = system: Salmonella typhimurium; assay: Adjuvant activity assessed as potentiation of rifampicin-induced antibacterial activity against Salmonella typhimurium at 21 ug/ml after 16 to 18 hrs by checkerboard assay (reference value: 8 ug/ml); format: functional, Salmonella enterica subsp. enterica serovar Typhimurium; settings: Salmonella enterica
[24] = system: Acinetobacter baumannii; assay: Adjuvant activity assessed as potentiation of rifampicin-induced antibacterial activity against Acinetobacter baumannii at 21 ug/ml after 16 to 18 hrs by checkerboard assay (reference value: 2 ug/ml); format: functional
[25] = system: Pseudomonas aeruginosa; assay: Adjuvant activity assessed as potentiation of rifampicin-induced antibacterial activity against Pseudomonas aeruginosa at 21 ug/ml after 16 to 18 hrs by checkerboard assay (reference value: 16 ug/ml); format: functional
[26] = system: Klebsiella pneumoniae; assay: Adjuvant activity assessed as potentiation of rifampicin-induced antibacterial activity against Klebsiella pneumoniae at 21 ug/ml after 16 to 18 hrs by checkerboard assay (reference value: 16 ug/ml); format: functional
[27] = system: Staphylococcus aureus; assay: Adjuvant activity assessed as potentiation of rifampicin-induced antibacterial activity against Staphylococcus aureus at 21 ug/ml after 16 to 18 hrs by checkerboard assay (reference value: 0.004 ug/ml); format: functional
[28] = Cytotoxicity against HEK cells assessed as cell viability at 21 ug/ml after 24 hrs by CellTiter-Glo assay relative to control; format: toxicity, cell-based, HEK293; settings: human, read-out: Activity
[29] = Cytotoxicity against HEK cells assessed as cell viability at 10.5 ug/ml after 24 hrs by CellTiter-Glo assay relative to control; format: toxicity, cell-based, HEK293; settings: human, read-out: Activity
[30] = Cytotoxicity against HEK cells assessed as cell viability at 5.3 ug/ml after 24 hrs by CellTiter-Glo assay relative to control; format: toxicity, cell-based, HEK293; settings: human, read-out: Activity
[31] = Cytotoxicity against HEK cells assessed as cell viability at 21 ug/ml after 48 hrs by CellTiter-Glo assay relative to control; format: toxicity, cell-based, HEK293; settings: human, read-out: Activity
[32] = Cytotoxicity against HEK cells assessed as cell viability at 10.5 ug/ml after 48 hrs by CellTiter-Glo assay relative to control; format: toxicity, cell-based, HEK293; settings: human, read-out: Activity
[33] = Cytotoxicity against HEK cells assessed as cell viability at 5.3 ug/ml after 48 hrs by CellTiter-Glo assay relative to control; format: toxicity, cell-based, HEK293; settings: human, read-out: Activity

SMILES | MIC [1] [µg/mL] | MIC [2] [µg/mL] | MIC [3] [µg/mL] | MIC [4] [µg/mL] | MIC [5] [µg/mL] | MIC [6] [µg/mL] | MIC [7] [µg/mL] | MIC [8] [µg/mL] | MIC [9] [µg/mL] | MIC [10] [µg/mL] | MIC [11] [µg/mL] | MIC [12] [µg/mL] | MIC [13] [µg/mL] | Activity [14] [%] | also measured
CCCCOc1ccc2[nH]cc(CCN)c2c1.Cl | > 74.3 | > 74.3 | > 74.3 | > 74 | > 74 | > 74 | > 74 | > 74 | > 74 | > 74.3 | > 74 | > 74 | > 74.3 | 3 | –
CCCCCCCCCCCCCCOc1ccc2[nH]cc(CCN)c2c1.Cl | > 119 | > 119 | 15 | > 119 | > 119 | > 119 | > 119 | > 119 | > 119 | > 119 | > 119 | > 119 | 3.4 to 30 | 11 | –
CCCCCCOc1ccc2[nH]cc(CCN)c2c1.Cl | 42 | 42 | 42 | > 83 | 42 | 42 | 42 | 42 | 42 | 42 | 42 | > 83 | 42 | 34 | MIC [15]: 0.004 µg/mL; MIC [16]: 0.004 µg/mL; MIC [17]: 0.001 µg/mL; MIC [18]: 0.002 µg/mL; MIC [19]: 0.013 µg/mL; MIC [20]: 0.013 µg/mL; MIC [21]: 0.001 µg/mL; MIC [22]: 0.004 µg/mL; MIC [23]: 0.5 µg/mL; MIC [24]: 0.016 µg/mL; MIC [25]: 16 µg/mL; MIC [26]: 8 µg/mL; MIC [27]: 0.004 µg/mL; viability at 24 h, 21 ug/ml [28]: 0%; viability at 24 h, 10.5 ug/ml [29]: 0.1%; viability at 24 h, 5.3 ug/ml [30]: 0.4%; viability at 48 h, 21 ug/ml [31]: 0%; viability at 48 h, 10.5 ug/ml [32]: 0%; viability at 48 h, 5.3 ug/ml [33]: 0.1%
